Assay results as given in patent US12195490B2, “STRAD-binding agents and uses thereof” (The Regents of the University of California, priority 2020, dated 2025).

Tested on: ACHN cell line
Assay: drug screen of the SelleckChem kinase inhibitor library with and without 5 uM SU-329, Cell-Titer Glo after 5 days
Format: cell-based
Conditions: kinase inhibitor at 200 nM with and without 5 uM SU329; ACHN cell line; 5 days; Cell-Titer Glo

| Molecule | log2fc |
| --- | --- |
| 10058-F4 | 0.2472 |
| O=C1NC(=O)C(=Cc2ccc(-c3ccc(F)cc3)o2)S1 (stereo in doubt) [CAY10505] | 0.3828 |
| Cn1cnc(N)c2ncnc1-2 [3-Methyladenine (3-MA)] | 0.3232 |
| Cc1[nH]nc2ccc(-c3cncc(OC[C@@H](N)Cc4ccccc4)c3)cc12 [A-674563] | −0.6438 |
| N#Cc1c(O)c2c(-c3ccc(-c4ccccc4O)cc3)csc2[nH]c1=O [A-769662] | 0.1798 |
| Cc1c(NC(=O)OC[C@@H]2COCCN2)cn2ncnc(Nc3ccc4c(cnn4Cc4cccc(F)c4)c3)c12 [AC480 (BMS-599626)] | 0.6806 |
| CCN1CCN(Cc2ccc(-c3cc4c(N[C@H](C)c5ccccc5)ncnc4[nH]3)cc2)CC1 [AEE788 (NVP-AEE788), AEE788, reference compound] | 0.07427 |
| N#C/C(=C/c1ccc(O)c(O)c1)C(=O)NCc1ccccc1 [AG-490 (Tyrphostin B42), AG-490, reference compound] | −0.01509 |
| CC(C)(C)c1cc(C=C(C#N)C#N)cc(Br)c1O [AG-1024] | −0.3636 |
| COc1cc2ncnc(Nc3cccc(Cl)c3)c2cc1OC [AG-1478 (Tyrphostin AG-1478), AG-1478, reference compound] | 0.2903 |
| NC(=O)c1ncn([C@@H]2O[C@H](CO)[C@@H](O)[C@H]2O)c1N [AICAR (Acadesine)] | 0.7164 |
| COc1cc(N2CCC(N(C)C)CC2)ccc1Nc1ncc(Cl)c(Nc2ccccc2P(C)(C)=O)n1 [ALK-IN-1] | −0.4692 |
| COc1ccc2c(Oc3ccc(NC(=O)c4c(C)n(CC(C)(C)O)n(-c5ccccc5)c4=O)nc3)ccnc2c1 [AMG-458] | 0.0395 |
| Cc1csc(-c2nnc(Nc3ccc(Oc4ncccc4-c4ccnc(N)n4)cc3)c3ccccc23)c1 [AMG-900] | 0.883 |
| COc1ccc(CNC(=O)Nc2ncc([N+](=O)[O-])s2)cc1 [AR-A014418] | 0.1293 |
| O=C1NC(=O)/C(=C/c2ccc(-c3ccc(F)cc3O)o2)S1 [AS-252424] | −0.1563 |
| O=C1NC(=O)/C(=C/c2ccc3c(c2)OC(F)(F)O3)S1 [AS-604850] | 0.4876 |
| C=CC(=O)Nc1ccc2ncnc(Nc3ccc(OCc4cccc(F)c4)c(Cl)c3)c2c1 [AST-1306, reference compound] | 0.0584 |
| O=C(NC1CCNCC1)c1n[nH]cc1NC(=O)c1c(Cl)cccc1Cl [AT7519] | −1.085 |
| Clc1ccc(C2(c3ccc(-c4cn[nH]c4)cc3)CCNCC2)cc1 [AT7867] | −0.935 |
| O=C(Nc1c[nH]nc1-c1nc2ccc(CN3CCOCC3)cc2[nH]1)NC1CC1 [AT9283] | 2.163 |
| C[C@@H]1COCCN1c1cc(C2(S(C)(=O)=O)CC2)nc(-c2cccc3[nH]ccc23)n1 [AZ20] | −0.01528 |
| Cc1ccc(NC(=O)c2cccc(C(C)(C)C#N)c2)cc1Nc1ccc2ncn(C)c(=O)c2c1 [AZ 628] | 0.4319 |
| Cc1cc(Nc2nc(N[C@@H](C)c3ccc(F)cc3)c(C#N)cc2F)n[nH]1 [AZ 960] | 0.979 |
| N#Cc1ccc2[nH]c(O)c(-c3ccc(CN4CCOCC4)cn3)c2c1 [AZD1080] | 1.953 |

| Molecule | log2fc |
| --- | --- |
| N[C@@H]1CCCN(c2c(/C=C3\SC(=O)NC3=O)cccc2-c2ccccc2)C1 [AZD1208] | −0.4967 |
| Cc1cc(Nc2nc(N[C@@H](C)c3ncc(F)cn3)ncc2Cl)[nH]n1 [AZD1480] | 0.4813 |
| CN1CCN(S(=O)(=O)c2ccc(-c3cnc(N)c(C(=O)Nc4cccnc4)n3)cc2)CC1 [AZD2858] | 0.1991 |
| COc1cc2ncnc(Oc3ccc(CC(=O)Nc4cnn(C(C)C)c4)cc3)c2cc1OC [AZD2932] | 0.4428 |
| COc1cc(N2CCC(N)CC2)ccc1Nc1ncc(Cl)c(-c2c[nH]c3ccccc23)n1 [AZD3463] | −0.06328 |
| COc1cc(CCc2cc(NC(=O)c3ccc(N4CC(C)NC(C)C4)cc3)n[nH]2)cc(OC)c1 (stereo not drawn) [AZD4547] | 0.4725 |
| Cc1ncc(-c2ccnc(Nc3ccc(S(C)(=O)=O)cc3)n2)n1C(C)C [AZD5438] | 1.871 |
| Cc1cc([C@@H](C)Nc2ccccc2C(=O)O)c2nc(N3CCOCC3)cc(=O)n2c1 [AZD6482] | −0.1098 |
| NC(=O)Nc1cc(-c2cccc(F)c2)sc1C(=O)N[C@H]1CCCNC1 [AZD7762] | 0.8568 |
| COc1ccc(-c2ccc3c(N4CCOC[C@@H]4C)nc(N4CCOC[C@@H]4C)nc3n2)cc1CO [AZD8055] | 0.1024 |
| Cc1cc(C(=O)NOCCO)c(Nc2ccc(I)cc2F)n(C)c1=O [AZD8330] | 0.5935 |
| CN(C)C/C=C/C(=O)Nc1cc2c(Nc3ccc(F)c(Cl)c3)ncnc2cc1O[C@H]1CCOC1 [Afatinib (BIBW2992), afatinib, reference compound] | 0.04313 |
| COc1cc(Nc2ncc3c(n2)-c2ccc(Cl)cc2C(c2c(F)cccc2OC)=NC3)ccc1C(=O)O [Alisertib (MLN8237)] | 0.7052 |
| Cc1nc(NC(=O)N2CCC[C@H]2C(N)=O)sc1-c1ccnc(C(C)(C)C(F)(F)F)c1 [Alpelisib (BYL719)] | −0.1349 |
| S=C(NCc1ccc2c(c1)OCO2)N1CCN(c2ncnc3c2oc2ccccc23)CC1 [Amuvatinib (MP-470)] | −0.2594 |
| N#CC1(c2ccc(NC(=O)c3cccnc3NCc3ccncc3)cc2)CCCC1 [Apatinib] | 0.257 |
| Cc1c(CN2CCN(C(=O)[C@H](C)O)CC2)sc2c(N3CCOCC3)nc(-c3cnc(N)nc3)nc12 [Apitolisib (GDC-0980, RG7422)] | −0.658 |
| C[C@H]1[C@H](C)CC[C@]2(C(=O)O)CC[C@]3(C)C(=CC[C@@H]4[C@@]5(C)C[C@@H](O)[C@H](O)[C@@](C)(CO)[C@@H]5CC[C@]43C)[C@H]12 [Asiatic Acid] | 0.1505 |
| CCN1CCN(C(=O)Cc2ccc(Nc3ncc(F)c(Nc4ccc(C(=O)Nc5ccccc5Cl)cc4)n3)cc2)CC1 [Aurora A Inhibitor I] | −0.1962 |
| CNC(=O)c1ccccc1Sc1ccc2c(/C=C/c3ccccn3)n[nH]c2c1 [Axitinib] | 0.00155 |
| Cc1ccc(S(=O)(=O)/C=C/C#N)cc1 [BAY 11-7082, reference compound] | −0.1258 |
| COc1ccc(-c2ccc3ncc4c(c3c2)n(-c2ccc(N3CCNCC3)c(C(F)(F)F)c2)c(=O)n4C)cn1 [BGT226 (NVP-BGT226)] | −0.4638 |
| CC[C@@H]1C(=O)N(C)c2cnc(Nc3ccc(C(=O)NC4CCN(C)CC4)cc3OC)nc2N1C1CCCC1 [BI 2536] | 1.415 |
| CC(C)CCN1c2nc(Nc3cc(F)c(O)c(F)c3)ncc2N(C)C(=O)C1C (stereo not drawn) [BI-D1870] | 0.7499 |
| O=C1Nc2cc(Br)ccc2/C1=C1/Nc2ccccc2/C1=N\O [BIO] | −0.1795 |

| Molecule | log2fc |
| --- | --- |
| CN(C)Cc1cccc(N/C(=C2\C(=O)Nc3cc(C(N)=O)ccc32)c2ccccc2)c1 [BIX 02188] | 0.2216 |
| CN(C)Cc1cccc(N/C(=C2\C(=O)Nc3cc(C(=O)N(C)C)ccc32)c2ccccc2)c1 [BIX 02189] | −0.08248 |
| CCCCOc1c(C(=O)c2c(F)cc(C)cc2F)c[nH]c2nncc1-2 [BMS-265246] | −0.1077 |
| Cc1cc(N2CCOCC2)cc2[nH]c(-c3c(NC[C@@H](O)c4cccc(Cl)c4)cc[nH]c3=O)nc12 [BMS-536924] | 0.4161 |
| C[C@@]1(C(=O)Nc2ccc(F)nc2)CCCN1c1nc(Nc2cc(C3CC3)n[nH]2)c2cccn2n1 [BMS-754807] | −1.139 |
| CCOc1ccn(-c2ccc(F)cc2)c(=O)c1C(=O)Nc1ccc(Oc2ccnc(N)c2Cl)c(F)c1 [BMS-777607] | −0.5095 |
| Nc1nccc(Oc2ccc(NC(=O)c3c[nH]cc(-c4ccc(F)cc4)c3=O)cc2F)c1Cl [BMS-794833] | −0.04405 |
| CC(C)c1cnn2c(NCc3ccccc3)cc(NCCCCCCN)nc12.Cl [BS-181 HCl] | 0.09476 |
| O=C(NCCCNc1nc(Nc2cccc(NC(=O)N3CCCC3)c2)ncc1I)c1cccs1 [BX-795] | −0.3476 |
| O=C(Nc1cccc(Nc2ncc(Br)c(NCCc3cnc[nH]3)n2)c1)N1CCCC1 [BX-912] | −0.4536 |
| CCN(CCO)CCCOc1ccc2c(Nc3cc(CC(=O)Nc4cccc(F)c4)[nH]n3)ncnc2c1 [Barasertib (AZD1152-HQPA)] | 0.7387 |
| CC(C)(C)c1ccc(S(=O)(=O)/C=C/C#N)cc1 [Bay 11-7085] | 0.004153 |
| Cn1cnc2c(F)c(Nc3ccc(Br)cc3F)c(C(=O)NOCCO)cc21 [Binimetinib (MEK162, ARRY-162, ARRY-438)] | 0.5434 |
| CN(C)CCCn1cc(C2=C(c3c[nH]c4ccccc34)C(=O)NC2=O)c2ccccc21 [Bisindolylmaleimide I (GF109203X)] | −0.2332 |
| COc1cc(Nc2c(C#N)cnc3cc(OCCCN4CCN(C)CC4)c(OC)cc23)c(Cl)cc1Cl [Bosutinib (SKI-606)] | −0.1583 |
| Cc1cc2c(F)c(Oc3ncnn4cc(OC[C@@H](C)O)c(C)c34)ccc2[nH]1 [Brivanib (BMS-540215)] | 0.1194 |
| Cc1cc2c(F)c(Oc3ncnn4cc(OC[C@@H](C)OC(=O)[C@H](C)N)c(C)c34)ccc2[nH]1 [Brivanib Alaninate (BMS-582664)] | 0.04321 |
| Nc1cc(C(F)(F)F)c(-c2cc(N3CCOCC3)nc(N3CCOCC3)n2)cn1 [Buparlisib (BKM120, NVP-BKM120)] | −1.183 |
| C=CC(=O)Nc1cccc(Nc2nc(Nc3ccc(OCCOC)cc3)ncc2F)c1 [CC-292 (AVL-292)] | −0.2142 |
| NC1(Cc2ccc(Cl)cc2)CCN(c2ncnc3[nH]ccc23)CC1 [CCT128930] | −0.2364 |
| CN1CCN(c2cccc(Nc3nc4c(-c5ccc(S(C)(=O)=O)cc5)cccn4n3)c2)CC1 [CEP-33779] | −0.6078 |
| Cc1c(NC(=O)c2ccc(C(C)(C)C)cc2)cccc1-c1cn(C)c(=O)c(Nc2ccc(C(=O)N3CCOCC3)cc2)n1 [CGI1746] | 0.8939 |
| O=C(NC(NC(=S)Nc1ccc(F)c([N+](=O)[O-])c1)C(Cl)(Cl)Cl)C(c1ccccc1)c1ccccc1 (stereo not drawn) [CGK 733] | 0.1923 |
| CS(=O)(=O)N1CCc2c(-c3cnc(N)nc3)nc(N3CCOCC3)nc21 [CH5132799] | −1.044 |
| O=c1[nH]c2ccc(Cl)cc2c(N[C@@H]2CN3CCC2CC3)c1-c1nc2ccccc2[nH]1 [CHIR-124] | 1.257 |
